How the values were obtained:
Experiment in all cases: relative viability (nuclei count vs DMSO), 5 days (fraction); higher = more cells survive
[1] = compound: C[C@@]1(C(=O)Nc2ccc(F)nc2)CCCN1c1nc(Nc2cc(C3CC3)n[nH]2)c2cccn2n1 + CC(=O)Nc1cccc(-n2c(=O)n(C3CC3)c(=O)c3c(Nc4ccc(I)cc4F)n(C)c(=O)c(C)c32)c1 [Trametinib] (partner 0.02 µM)
In short: (§1)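 Relative viability equals treated-well nuclei counts divided by vehicle-well nuclei counts. Counts came from 4× images of lung cancer cell lines grown in 1536-well plates for 5 days after pin-tool dosing on the day after seeding. Dosing used one drug alone or a fixed anchor-drug dose plus five library-drug doses (not always all listed) in √10 steps, and values are medians of duplicate plates.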

[2] = compound: C[C@@]1(C(=O)Nc2ccc(F)nc2)CCCN1c1nc(Nc2cc(C3CC3)n[nH]2)c2cccn2n1 + O=C(CCCCCCC(=O)Nc1ccccc1)NO [Vorinostat] (partner 1 µM)
In short: as §1

[3] = compound: CC1(C)CNc2cc(NC(=O)c3cccnc3NCc3ccncc3)ccc21 [Motesanib] + N=C(N)NC(=N)NCCc1ccccc1 [Phenformin] (partner 250 µM)
In short: as §1

[4] = compound: C[C@@]1(C(=O)Nc2ccc(F)nc2)CCCN1c1nc(Nc2cc(C3CC3)n[nH]2)c2cccn2n1 + CS(=O)(=O)N1CCN(Cc2cc3nc(-c4cccc5[nH]ncc45)nc(N4CCOCC4)c3s2)CC1 [Pictilisib] (partner 1 µM)
In short: as §1

Row | Cell Line | relative viability ([1]; first compound 0.04 µM) | relative viability ([1]; first compound 0.1265 µM) | relative viability ([1]; first compound 0.4 µM) | relative viability ([1]; first compound 1.265 µM) | relative viability ([2]; first compound 0.04 µM) | relative viability ([2]; first compound 0.1265 µM) | relative viability ([2]; first compound 0.4 µM) | relative viability ([2]; first compound 1.265 µM) | relative viability ([3]; first compound 0.01 µM) | relative viability ([3]; first compound 0.03162 µM) | relative viability ([3]; first compound 0.1 µM) | relative viability ([3]; first compound 0.3162 µM) | relative viability ([3]; first compound 1 µM) | relative viability ([4]; first compound 0.04 µM) | relative viability ([4]; first compound 0.1265 µM) | relative viability ([4]; first compound 0.4 µM) | relative viability ([4]; first compound 1.265 µM)
1 | HOP-62 | 0.406 | 0.303 | 0.313 | 0.397 | 0.589 | 0.529 | 0.464 | 0.527 | 0.641 | 0.694 | 0.678 | 0.74 | 0.761 | 0.882 | 0.632 | 0.525 | 0.818
2 | IA-LM |  |  |  |  | 0.914 | 0.999 | 0.836 | 0.928 |  |  |  |  |  | 0.175 | 0.261 | 0.125 | 0.179
3 | LC-2-ad | 0.848 | 0.749 | 0.648 | 0.735 | 0.66 | 0.554 | 0.526 | 0.186 | 0.531 | 0.664 | 0.566 | 0.566 | 0.534 | 0.248 | 0.271 | 0.272 | 0.206
4 | LCLC-97TM1 | 0.232 | 0.0949 | 0.0995 | 0.13 | 0.361 | 0.28 | 0.106 | 0.0755 | 0.427 | 0.424 | 0.46 | 0.419 | 0.418 | 0.139 | 0.151 | 0.159 | 0.136
5 | LCLC-103H | 0.668 | 0.613 | 0.62 | 0.69 | 0.763 | 0.62 | 0.593 | 0.563 | 0.338 | 0.298 | 0.294 | 0.369 | 0.37 | 0.501 | 0.497 | 0.366 | 0.441
6 | LK-2 | 0.426 | 1.15 | 0.416 | 0.495 | 0.294 | 0.182 | 0.151 | 0.202 | 0.372 | 0.39 |  | 0.538 | 0.549 | 0.574 | 0.565 | 0.569 | 0.523
7 | LOU-NH91 | 0.737 | 0.845 | 0.709 | 0.755 | 0.961 | 0.856 | 0.747 | 0.711 | 0.672 | 0.736 | 0.78 | 0.75 | 0.78 | 0.492 | 0.478 | 0.452 | 0.448
8 | LU99A | 0.411 | 0.352 | 0.399 | 0.504 | 0.368 | 0.245 | 0.229 | 0.193 | 0.737 | 0.886 | 0.819 | 0.952 | 0.894 | 0.233 | 0.217 | 0.225 | 0.163
9 | LXF-289 | 0.67 | 0.619 | 0.645 | 0.717 | 0.815 | 0.701 | 0.73 | 0.792 | 0.526 | 0.478 | 0.573 | 0.529 | 0.521 | 0.739 | 0.657 | 0.567 | 0.628
10 | NCI-H23 | 0.233 | 0.199 | 0.178 | 0.252 | 0.473 | 0.332 | 0.27 | 0.178 | 0.799 | 0.865 | 0.771 | 0.795 | 0.715 | 0.583 | 0.371 | 0.396 | 0.342
